# Values joined by “and” are separate entries in the source; they are usually repeats but may differ in a detail not shown here. Equal values may be shown once. Read-outs that look alike come from different tables or passages of the source.
# What was measured:
# [1] = system: K. pneumonia ATCC 700603; test: MIC and MBC on ATCC control strains (Example 10); assay type: cell-based, K. pneumoniae
# Source text: (§1) The Gram-positive organisms tested were S. epidermidis ATCC 12228, S. aureus ATCC 25923, and E. faecalis ATCC 29212. The Gram-negative strains tested were P. aeruginosa ATCC 27853, K. pneumonia ATCC 700603 and E. coli ATCC 25922.
# [2] = system: S. epidermidis and S. aureus
# Source text: Microbial resistance is a concern associated with repeated exposure to anti-microbial agents.
# [3] = IV, cited from earlier work
# [4] = system: mammalian species; conditions: mammalian species (PDR 1998); cited from earlier work
# [5] = system: S. aureus; test: Broth microdilution MIC and MBC (Example 9); assay type: cell-based
# Experimental: (§2) Minimal bactericidal concentrations (MBCs) were determined for bacterial isolates associated with catheter-related infections (Attachment 18.18). Broth microdilution MBCs were determined by first performing the standard broth microdilution technique to establish the 5-FU MIC for each organism (CLSI M7-A7). […] were sampled to determine the MBC as defined as the concentration at which a ≧99.9% reduction in the colony forming units relative to the starting inoculum concentration was achieved. When the MBC:MIC ratio for 5-FU was […].
# [6] = system: E. faecalis; test: Broth microdilution MIC and MBC (Example 9); assay type: cell-based
# Experimental: as §2
# [7] = system: P. aeruginosa; test: Broth microdilution MIC and MBC (Example 9); assay type: cell-based
# Experimental: as §2
# [8] = system: S. epidermidis; test: Broth microdilution MIC and MBC (Example 9); assay type: cell-based
# Experimental: as §2
# [9] = system: K. pneumoniae; test: Broth microdilution MIC and MBC (Example 9); assay type: cell-based
# Experimental: as §2
# [10] = system: E. coli; test: Broth microdilution MIC and MBC (Example 9); assay type: cell-based
# Experimental: as §2
# [11] = system: S. aureus; test: MIC testing by broth microdilution, clinical isolates (Example 4); assay type: cell-based
# Experimental: (§3) The Gram-positive organisms tested were S. epidermidis, methicillin resistant S. epidermidis (MRSE), S. aureus, methicillin resistant S. aureus (MRSA), E. faecalis and vancomycin resistant E. faecalis, the Gram-negative organisms tested were P. aeruginosa, E. coli and K. pneumoniae .
# (§4) For MIC testing, all isolates were tested against 5-FU by broth microdilution following CLSI methodology (M7-A7).
# [12] = system: E. faecalis; test: as above; assay type: cell-based
# Experimental: as §3, §4
# [13] = system: P. aeruginosa; test: as above; assay type: cell-based; conditions: Pseudomonas aeruginosa, N=100
# Experimental: as §3, §4
# [14] = system: S. epidermidis; test: as above; assay type: cell-based
# Experimental: as §3, §4
# [15] = system: K. pneumoniae; test: as above; assay type: cell-based; conditions: Klebsiella pneumoniae, N=104
# Experimental: as §3, §4
# [16] = system: E. coli; test: as above; assay type: cell-based; conditions: Escherichia coli, N=102
# Experimental: as §3, §4
# [17] = system: Gram-positive organisms; test: MIC testing by broth microdilution, summary (Example 4); assay type: cell-based; conditions: range over organisms
# Experimental: as §3, §4
# [18] = system: Gram-negative isolates; test: as above; assay type: cell-based; conditions: range over organisms
# Experimental: as §3, §4
# [19] = system: E. faecalis ATCC 29212; test: MIC and MBC on ATCC control strains (Example 10); assay type: cell-based
# Source text: as §1
# [20] = system: S. aureus ATCC 25923; test: MIC and MBC on ATCC control strains (Example 10); assay type: cell-based
# Source text: as §1
# [21] = system: P. aeruginosa ATCC 27853; test: MIC and MBC on ATCC control strains (Example 10); assay type: cell-based
# Source text: as §1
# [22] = system: S. epidermidis ATCC 12228; test: MIC and MBC on ATCC control strains (Example 10); assay type: cell-based
# Source text: as §1
smiles,measurement,setting,value
"O=c1[nH]cc(F)c(=O)[nH]1 [5-FU, 5-fluorouracil]",MBC,"[1]; Klebsiella pneumoniae, ATCC700603, read-out: MBC",> 100 µg/mL
same,MIC,"[1]; Klebsiella pneumoniae, ATCC700603, read-out: MIC",100 µg/mL
same,Historical 5-FU MIC values,[2],0.06 to 0.12 µg/mL
same,plasma levels,[3]; continuous infusion,about 10 μM
same,plasma concentrations,[3]; rapid infusion,0.1-1.0 mM and 13-130 μg/ml
same,LD50,[4],94 to 880 mg/kg
same,MIC range,"[5]; S. aureus, 11 strains",0.03 to 0.25 µg/mL
same,"bactericidal, number of strains","[5]; S. aureus, by MBC:MIC ratio",4 of the 11
same,MBC range,"[5]; S. aureus, ≧99.9% reduction in CFU",0.12 to 32 µg/mL
same,MIC,"[5]; Staphylococcus aureus, methicillin resistant S. aureus, N=5, read-out: averaged MIC",0.12 µg/mL
same,MIC range,[6]; 10 strains,0.008 to 0.12 µg/mL
same,"bactericidal, number of strains",[6]; by MBC:MIC ratio,8 of the 10
same,MBC range,[6]; ≧99.9% reduction in CFU,0.008 to 0.25 µg/mL
same,MBC,"[7]; Pseudomonas aeruginosa, ≧99.9% reduction in CFU, read-out: MBC (all strains)",> 512 µg/mL
same,bactericidal activity,[7]; by MBC:MIC ratio,no bactericidal activity
same,MIC range,"[8]; S. epidermidis, 10 strains",0.03 to 0.25 µg/mL
same,"bactericidal, number of strains","[8]; S. epidermidis, by MBC:MIC ratio",6 of the 11
same,MBC range,"[8]; S. epidermidis, ≧99.9% reduction in CFU",0.03 to 0.25 µg/mL
same,MIC,"[8]; Staphylococcus epidermidis, methicillin resistant S. epidermidis, N=8, read-out: averaged MIC",0.08 µg/mL
same,MBC,"[9]; Klebsiella pneumoniae, ≧99.9% reduction in CFU, read-out: MBC (all strains)",> 512 µg/mL
same,bactericidal activity,[9]; by MBC:MIC ratio,no bactericidal activity
same,MIC range,[10]; 10 strains,0.25 to 64 µg/mL
same,"bactericidal, number of strains",[10]; by MBC:MIC ratio,1 of the 10
same,MIC50,"[11]; Oxacillin-R, N=40",0.12 µg/mL
same,MIC50,"[11]; Oxacillin-S, N=61",0.12 µg/mL
same,MIC90,"[11]; Staphylococcus aureus, Oxacillin-R, N=40",0.12 µg/mL
same,MIC90,"[11]; Staphylococcus aureus, Oxacillin-S, N=61",0.25 µg/mL
same,MIC90,"[11]; Staphylococcus aureus, all, N=101",0.25 µg/mL
same,MIC50,"[11]; Staphylococcus aureus, all, N=101, read-out: MIC50",0.12 µg/mL
same,MIC50,"[12]; Enterococcus faecalis, all, N=101, read-out: MIC50",0.015 µg/mL
same,MIC90,"[12]; Enterococcus faecalis, all, N=101, read-out: MIC90",0.06 µg/mL
same,MIC50,"[12]; Vancomycin-R, N=21",0.015 µg/mL
same,MIC90,"[12]; Vancomycin-R, N=21",0.06 µg/mL
same,MIC50,"[12]; Vancomycin-S, N=80",0.015 µg/mL
same,MIC90,"[12]; Vancomycin-S, N=80",0.06 µg/mL
same,MIC50,[13],16 µg/mL
same,MIC90,[13],64 µg/mL
same,MIC50,"[14]; Oxacillin-R, N=78",0.06 µg/mL
same,MIC50,"[14]; Oxacillin-S, N=22",0.06 µg/mL
same,MIC90,"[14]; Staphylococcus epidermidis, Oxacillin-R, N=78",0.5 µg/mL
same,MIC90,"[14]; Staphylococcus epidermidis, Oxacillin-S, N=22",0.12 µg/mL
same,MIC90,"[14]; Staphylococcus epidermidis, all, N=100",0.25 µg/mL
same,MIC50,"[14]; Staphylococcus epidermidis, all, N=100, read-out: MIC50",0.06 µg/mL
same,MIC50,[15],128 µg/mL
same,MIC90,[15],> 512 µg/mL
same,MIC50,[16],32 µg/mL
same,MIC90,[16],64 µg/mL
same,MIC50,[17],0.015 to 0.12 µg/mL
same,MIC50,[18],16 to 128 µg/mL
same,MBC,"[19]; Enterococcus faecalis, ATCC29212, read-out: MBC",3.7 µg/mL
same,MIC,"[19]; Enterococcus faecalis, ATCC29212, read-out: MIC",3.7 µg/mL
same,MBC,"[20]; Staphylococcus aureus, ATCC25923, read-out: MBC",1.23 µg/mL
same,MIC,"[20]; Staphylococcus aureus, ATCC25923, read-out: MIC",1.23 µg/mL
same,MBC,"[21]; Pseudomonas aeruginosa, ATCC27853, read-out: MBC",> 100 µg/mL
same,MIC,"[21]; Pseudomonas aeruginosa, ATCC27853, read-out: MIC",> 100 µg/mL
same,MBC,"[22]; Staphylococcus epidermidis, ATCC12228, read-out: MBC",0.41 µg/mL
same,MIC,"[22]; Staphylococcus epidermidis, ATCC12228, read-out: MIC",0.14 µg/mL
"O=c1[nH]c(=O)n([C@H]2C[C@H](O)[C@@H](CO)O2)cc1F [Flox, floxuridine]",MBC,[1],3.7 µg/mL
same,MIC,[1],1.23 µg/mL
same,MBC,[19],11.11 µg/mL
same,MIC,[19],3.7 µg/mL
same,MBC,[20],0.14 µg/mL
same,MIC,[20],<0.05 µg/mL
same,MBC,[21],>100 µg/mL
same,MIC,[21],>100 µg/mL
same,MBC,[22],<0.05 µg/mL
same,MIC,[22],<0.05 µg/mL

# From patent publication US20110150961A1, “ANTI-INFECTIVE CATHETERS” (priority 2008, published 2011)
